Source: US9701707B2, “Methods of synthesizing substituted purine compounds” (Epizyme, Inc., priority 2013, dated 2017)

Legend:
Format in all cases: physicochemical
[1] = Dynamic vapor sorption (DVS) hygroscopicity; settings: between 0% and 95% RH, 25° C.
Experimental: Form A may be observed EP-1. […] (peak temperature) which is accompanied by 5.9 wt % weight loss up to ˜150° C. in the TGA curve (FIG. 3). […] Form A is hygroscopic as indicated by water adsorption of 5.8 wt % at 80% RH measured by dynamic vapor sorption (DVS) (FIG. 4). A solid is considered moderately hygroscopic when water uptake at 25° C./80% RH is between 2-15 wt % based on criteria of European Pharmacopeia.
Form B of EP-1 trihydrate (x is 3) is a trihydrate as confirmed by single crystal analysis. The experimental XRPD pattern of Form B matches well with the simulated one from single crystal data (FIG. 6). This was also confirmed by DSC and TGA data (FIG. 7 and FIG. 8, respectively). DSC data indicates Form B dehydrates at ˜132° C. […] Form B is slightly hygroscopic as evidenced by a weight change of ˜0.3% between 0% and 95% RH (FIG. 9), (data collection was programmed from 95% RH-0% RH-95% RH at a step size of 10% RH at 25° C.).

[2] = Solution stability in pH buffers
Experimental: 0.1 mg/ml solutions of Form B were prepared in five buffers, including 0.01N HCl (pH 2), 50 mM sodium citrate (pH 4), 50 mM sodium citrate (pH 6), 50 mM sodium phosphate (pH 8), and 50 mM sodium carbonate (pH 10). Methanol was added as a co-solvent to dissolve Form B in buffers (i.e., 10% (v/v) in pH 2, 4, and 6 buffers, 20% (v/v) in pH 8 buffer, and 30% (v/v) in pH 10 buffer). Each buffer solution containing Form B was stored at 3 different temperatures: 25° C., 37° C., and 50° C. Aliquots were taken for HPLC analysis after 1 day and 7 days. pH values were also measured before and after the stability experiments.
Preparation of pH Buffers • pH 2: 0.01N HCl solution. Dilute 1 ml of 1 N HCl with H2O up to a total volume of 100 ml. Measure the pH and precisely adjust to pH=2.00 using a few microliters of 1N HCl or 1N NaOH. • pH 4: 50 mM Na citrate buffer. Prepare a 50 mM citric acid solution by diluting 10 ml of 1N citric acid with H2O up to a total volume of 200 ml. Slowly add solid NaOH under stirring to increase the pH to 3.8-4.0 and use a few microliters of 1N NaOH for final adjustment to pH 4.00. • pH 6: 50 mM Na citrate buffer. Use the same procedure as the pH 4 buffer and adjust to pH=6.00 • pH 8: 50 mM Na phosphate buffer. Prepare a 50 mM NaH2PO4 solution by dissolving 6.00 g NaH2PO4 in 1 L of H2O and a 50 mM Na2HPO4 solution by dissolving 7.10 g in 1 L of H2O. Mix 10 ml of the NaH2PO4 solution with 140 ml of the Na2HPO4 solution in a beaker. Adjust to pH 8.00 by addition of small amounts of 50 mM NaH2PO4 or Na2HPO4 solution. • pH 10: 50 mM Na carbonate buffer. Prepare a 50 mM carbonate solution by dissolving 840 mg of sodium bicarbonate (NaHCO3) in about 180 ml of H2O. Slowly adjust the pH to 10.0±0.1 by addition of 1N NaOH. Add water to reach the total volume of 200 ml and adjust to pH 10.00 with 1N NaOH.

[3] = Solid-state photostability
Experimental: The solid-state photostability of EP-1 trihydrate (x is 3) was assessed upon exposure to UV/Vis light according to ICH guidelines. Loss of claim %, loss of area %, and degradates were evaluated versus dark control samples.
Solid-State Photostability: Weighed ˜5 mg Form B into glass vials with 2 vials covered with foil as the controls. Put these 2 samples with their controls into chamber and expose them to Vis (10 Kilo lux) for 120 hrs followed by UV (10 W/m^2) for 20 hrs (per ICH guidelines). At the end of Vis, take 1 sample and 1 control out for analysis and the others were taken out after both Vis and UV exposure.

[4] = pH 2, 25° C., 24 h, measured pH 2.1
[5] = pH 2, 25° C., 7 days, measured pH 2.1
[6] = pH 2, 37° C., 24 h, measured pH 2.1
[7] = pH 2, 37° C., 7 days, measured pH 2.1
[8] = pH 2, 50° C., 24 h, measured pH 2.1
[9] = pH 2, 50° C., 7 days, measured pH 2.1
[10] = pH 4, 25° C., 24 h, measured pH 4.2
[11] = pH 4, 25° C., 7 days, measured pH 4.2
[12] = pH 4, 37° C., 24 h, measured pH 4.1
[13] = pH 4, 37° C., 7 days, measured pH 4.1
[14] = pH 4, 50° C., 24 h, measured pH 4.1
[15] = pH 4, 50° C., 7 days, measured pH 4.2
[16] = pH 6, 25° C., 24 h, measured pH 6.2
[17] = pH 6, 25° C., 7 days, measured pH 6.2
[18] = pH 6, 37° C., 24 h, measured pH 6.2
[19] = pH 6, 37° C., 7 days, measured pH 6.3
[20] = pH 6, 50° C., 24 h, measured pH 6.2
[21] = pH 6, 50° C., 7 days, measured pH 6.2
[22] = pH 8, 25° C., 24 h, measured pH 8.2
[23] = pH 8, 25° C., 7 days, measured pH 8.2
[24] = pH 8, 37° C., 24 h, measured pH 8.2
[25] = pH 8, 37° C., 7 days, measured pH 8.3
[26] = pH 8, 50° C., 24 h, measured pH 8.3
[27] = pH 8, 50° C., 7 days, measured pH 8.3
[28] = pH 10, 25° C., 24 h, measured pH 10.9
[29] = pH 10, 25° C., 7 days, measured pH 10.9
[30] = pH 10, 37° C., 24 h, measured pH 10.9
[31] = pH 10, 37° C., 7 days, measured pH 10.9
[32] = pH 10, 50° C., 24 h, measured pH 11.0
[33] = pH 10, 50° C., 7 days, measured pH 10.9
[34] = Bulk control (covered with foil), Vis Stability (1.2 Mil lux-hours)
[35] = Bulk control (covered with foil), Vis-UV stability (1.2 Mil lux-hours + 200 Watt-hours/m^2)
[36] = Bulk, Vis Stability (1.2 Mil lux-hours)
[37] = Bulk, Vis-UV stability (1.2 Mil lux-hours + 200 Watt-hours/m^2)

Question: For CC(C)N(C[C@H]1O[C@@H](n2cnc3c(N)ncnc32)[C@H](O)[C@@H]1O)[C@H]1C[C@@H](CCc2nc3cc(C(C)(C)C)ccc3[nH]2)C1 [Form B, (2R,3R,4S,5R)-2-(6-amino-9H-purin-9-yl)-5-((((1r,3S)-3-(2-(5-(tert-butyl)-1H-benzo[d]imidazol-2-yl)ethyl)cyclobutyl)(isopropyl)amino)methyl)tetrahydrofuran-3,4-diol trihydrate], which weight change [1] is on record?
Answer: ~0.3%

Question: What about the “% area (100% − TRS%)” value [2, 4] of the same molecule?
Answer: 98.7%

Question: What about the “% claim (Cs/Ci × 100%)” value [2, 4] of the same molecule?
Answer: 97.1%

Question: And the “% area (100% − TRS%)” value [2, 5]?
Answer: 98.5%

Question: And the “% claim (Cs/Ci × 100%)” value [2, 5]?
Answer: 99.1%

Question: And the “% area (100% − TRS%)” value [2, 6]?
Answer: 98.7%

Question: And the “% claim (Cs/Ci × 100%)” value [2, 6]?
Answer: 96.8%

Question: And the “% area (100% − TRS%)” value [2, 7]?
Answer: 98.4%

Question: And the “% claim (Cs/Ci × 100%)” value [2, 7]?
Answer: 97.5%

Question: And the “% area (100% − TRS%)” value [2, 8]?
Answer: 98.3%

Question: What about the “% claim (Cs/Ci × 100%)” value [2, 8] of the same molecule?
Answer: 97.0%

Question: And the “% area (100% − TRS%)” value [2, 9]?
Answer: 98.4%

Question: What about the “% claim (Cs/Ci × 100%)” value [2, 9] of the same molecule?
Answer: 97.0%

Question: What about the degradation in solution ([2]; pH 2 to 10 buffers, 25° C., 37° C., 50° C., up to 7 days) of the same molecule?
Answer: less than 5%

Question: And the “% area (100% − TRS%)” value [2, 10]?
Answer: 99.4%

Question: What about the “% claim (Cs/Ci × 100%)” value [2, 10] of the same molecule?
Answer: 97.4%

Question: And the “% area (100% − TRS%)” value [2, 11]?
Answer: 99.6%

Question: And the “% claim (Cs/Ci × 100%)” value [2, 11]?
Answer: 100.2%

Question: What about the “% area (100% − TRS%)” value [2, 12] of the same molecule?
Answer: 99.4%

Question: And the “% claim (Cs/Ci × 100%)” value [2, 12]?
Answer: 97.6%

Question: What about the “% area (100% − TRS%)” value [2, 13] of the same molecule?
Answer: 99.5%

Question: What about the “% claim (Cs/Ci × 100%)” value [2, 13] of the same molecule?
Answer: 99.0%

Question: And the “% area (100% − TRS%)” value [2, 14]?
Answer: 99.4%

Question: And the “% claim (Cs/Ci × 100%)” value [2, 14]?
Answer: 97.6%

Question: And the “% area (100% − TRS%)” value [2, 15]?
Answer: 99.5%

Question: What about the “% claim (Cs/Ci × 100%)” value [2, 15] of the same molecule?
Answer: 98.7%

Question: And the “% area (100% − TRS%)” value [2, 16]?
Answer: 99.2%

Question: What about the “% claim (Cs/Ci × 100%)” value [2, 16] of the same molecule?
Answer: 98.0%

Question: And the “% area (100% − TRS%)” value [2, 17]?
Answer: 99.5%

Question: And the “% claim (Cs/Ci × 100%)” value [2, 17]?
Answer: 100.0%

Question: What about the “% area (100% − TRS%)” value [2, 18] of the same molecule?
Answer: 99.3%

Question: What about the “% claim (Cs/Ci × 100%)” value [2, 18] of the same molecule?
Answer: 97.9%

Question: What about the “% area (100% − TRS%)” value [2, 19] of the same molecule?
Answer: 99.4%

Question: What about the “% claim (Cs/Ci × 100%)” value [2, 19] of the same molecule?
Answer: 99.0%

Question: What about the “% area (100% − TRS%)” value [2, 20] of the same molecule?
Answer: 99.3%

Question: And the “% claim (Cs/Ci × 100%)” value [2, 20]?
Answer: 98.1%

Question: What about the “% area (100% − TRS%)” value [2, 21] of the same molecule?
Answer: 99.5%

Question: And the “% claim (Cs/Ci × 100%)” value [2, 21]?
Answer: 98.9%

Question: And the “% area (100% − TRS%)” value [2, 22]?
Answer: 99.2%

Question: What about the “% claim (Cs/Ci × 100%)” value [2, 22] of the same molecule?
Answer: 98.0%

Question: And the “% area (100% − TRS%)” value [2, 23]?
Answer: 99.5%

Question: What about the “% claim (Cs/Ci × 100%)” value [2, 23] of the same molecule?
Answer: 99.8%

Question: And the “% area (100% − TRS%)” value [2, 24]?
Answer: 99.5%

Question: What about the “% claim (Cs/Ci × 100%)” value [2, 24] of the same molecule?
Answer: 98.4%

Question: And the “% area (100% − TRS%)” value [2, 25]?
Answer: 99.5%

Question: What about the “% claim (Cs/Ci × 100%)” value [2, 25] of the same molecule?
Answer: 99.3%

Question: And the “% area (100% − TRS%)” value [2, 26]?
Answer: 99.5%

Question: What about the “% claim (Cs/Ci × 100%)” value [2, 26] of the same molecule?
Answer: 98.0%

Question: And the “% area (100% − TRS%)” value [2, 27]?
Answer: 99.5%

Question: What about the “% claim (Cs/Ci × 100%)” value [2, 27] of the same molecule?
Answer: 98.8%

Question: And the “% area (100% − TRS%)” value [2, 28]?
Answer: 99.4%

Question: What about the “% claim (Cs/Ci × 100%)” value [2, 28] of the same molecule?
Answer: 98.0%

Question: What about the “% area (100% − TRS%)” value [2, 29] of the same molecule?
Answer: 99.4%

Question: What about the “% claim (Cs/Ci × 100%)” value [2, 29] of the same molecule?
Answer: 99.7%

Question: What about the “% area (100% − TRS%)” value [2, 30] of the same molecule?
Answer: 99.4%

Question: And the “% claim (Cs/Ci × 100%)” value [2, 30]?
Answer: 98.2%

Question: What about the “% area (100% − TRS%)” value [2, 31] of the same molecule?
Answer: 99.4%

Question: What about the “% claim (Cs/Ci × 100%)” value [2, 31] of the same molecule?
Answer: 99.0%

Question: What about the “% area (100% − TRS%)” value [2, 32] of the same molecule?
Answer: 99.5%

Question: And the “% claim (Cs/Ci × 100%)” value [2, 32]?
Answer: 97.9%

Question: And the “% area (100% − TRS%)” value [2, 33]?
Answer: 99.4%

Question: What about the “% claim (Cs/Ci × 100%)” value [2, 33] of the same molecule?
Answer: 98.9%

Question: What about the “% area (100% − TRS%)” value [3, 34] of the same molecule?
Answer: 99.7%

Question: What about the “% claim (Cs/Ci × 100%)” value [3, 34] of the same molecule?
Answer: 100.0%

Question: What about the “% area (100% − TRS%)” value [3, 35] of the same molecule?
Answer: 99.8%

Question: And the “% claim (Cs/Ci × 100%)” value [3, 35]?
Answer: 100.0%

Question: What about the “% area (100% − TRS%)” value [3, 36] of the same molecule?
Answer: 99.8%

Question: And the “% claim (Cs/Ci × 100%)” value [3, 36]?
Answer: 101.1%

Question: And the “% area (100% − TRS%)” value [3, 37]?
Answer: 99.8%

Question: What about the “% claim (Cs/Ci × 100%)” value [3, 37] of the same molecule?
Answer: 99.6%

Question: What about the solid-state photostability ([3]; exposure to full ICH photostability requirement, versus dark control) of the same molecule?
Answer: stable
